Data from PMC3694096, “Development of Novel In Vivo Chemical Probes to Address CNS Protein Kinase Involvement in Synaptic Dysfunction” (PLoS ONE, 2013).
Where two headings read alike, the source gives them in different places.

Assays:
PAK3 = target: T1, PAK3 (Homo sapiens, UniProt O75914); assay: Kinome profiler screen; assay type: biochemical; details: at 20,000 nM inhibitor; kinase activity remaining
T1 construct: purchased Millipore KinaseProfiler

PKD2 = target: T2, PKD2 (Homo sapiens, UniProt Q9BZL6); assay: Kinome profiler screen; assay type: biochemical; details: at 20,000 nM inhibitor; kinase activity remaining
T2 construct: purchased Millipore KinaseProfiler

MAPKAP-K3 = target: T3, MAPKAP-K3 (Homo sapiens, UniProt Q16644); assay: Kinome profiler screen; assay type: biochemical; details: at 20,000 nM inhibitor; kinase activity remaining
T3 construct: purchased Millipore KinaseProfiler

MKK7β = target: T4, MKK7β (Homo sapiens, UniProt O14733); assay: Kinome profiler screen; assay type: biochemical; details: at 20,000 nM inhibitor; kinase activity remaining
T4 construct: purchased Millipore KinaseProfiler

Fyn = target: T5, Fyn (Homo sapiens, UniProt P06241); assay: Kinome profiler screen; assay type: biochemical; details: at 20,000 nM inhibitor; kinase activity remaining
T5 construct: purchased Millipore KinaseProfiler

PASK = target: T6, PASK (Homo sapiens, UniProt Q96RG2); assay: Kinome profiler screen; assay type: biochemical; details: at 20,000 nM inhibitor; kinase activity remaining
T6 construct: purchased Millipore KinaseProfiler

eEF-2K = target: T7, eEF-2K (Homo sapiens, UniProt O00418); assay: Kinome profiler screen; assay type: biochemical; details: at 20,000 nM inhibitor; kinase activity remaining
T7 construct: purchased Millipore KinaseProfiler

JNK3 = JNK3 (Homo sapiens, UniProt P53779); assay: Kinome profiler screen; assay type: biochemical; details: for activity at 20 µM: at 20,000 nM inhibitor, kinase activity remaining
MLK1 = target: T8, MLK1 (Homo sapiens, UniProt P80192); assay: Kinome profiler screen; assay type: biochemical; details: at 20,000 nM inhibitor; kinase activity remaining
T8 construct: purchased Millipore KinaseProfiler

EphB2 = target: T9, EphB2 (Homo sapiens, UniProt P29323); assay: Kinome profiler screen; assay type: biochemical; details: for activity at 20 µM: at 20,000 nM inhibitor, kinase activity remaining
T9 construct: purchased Millipore
T9 sequence (P29323 19-1055): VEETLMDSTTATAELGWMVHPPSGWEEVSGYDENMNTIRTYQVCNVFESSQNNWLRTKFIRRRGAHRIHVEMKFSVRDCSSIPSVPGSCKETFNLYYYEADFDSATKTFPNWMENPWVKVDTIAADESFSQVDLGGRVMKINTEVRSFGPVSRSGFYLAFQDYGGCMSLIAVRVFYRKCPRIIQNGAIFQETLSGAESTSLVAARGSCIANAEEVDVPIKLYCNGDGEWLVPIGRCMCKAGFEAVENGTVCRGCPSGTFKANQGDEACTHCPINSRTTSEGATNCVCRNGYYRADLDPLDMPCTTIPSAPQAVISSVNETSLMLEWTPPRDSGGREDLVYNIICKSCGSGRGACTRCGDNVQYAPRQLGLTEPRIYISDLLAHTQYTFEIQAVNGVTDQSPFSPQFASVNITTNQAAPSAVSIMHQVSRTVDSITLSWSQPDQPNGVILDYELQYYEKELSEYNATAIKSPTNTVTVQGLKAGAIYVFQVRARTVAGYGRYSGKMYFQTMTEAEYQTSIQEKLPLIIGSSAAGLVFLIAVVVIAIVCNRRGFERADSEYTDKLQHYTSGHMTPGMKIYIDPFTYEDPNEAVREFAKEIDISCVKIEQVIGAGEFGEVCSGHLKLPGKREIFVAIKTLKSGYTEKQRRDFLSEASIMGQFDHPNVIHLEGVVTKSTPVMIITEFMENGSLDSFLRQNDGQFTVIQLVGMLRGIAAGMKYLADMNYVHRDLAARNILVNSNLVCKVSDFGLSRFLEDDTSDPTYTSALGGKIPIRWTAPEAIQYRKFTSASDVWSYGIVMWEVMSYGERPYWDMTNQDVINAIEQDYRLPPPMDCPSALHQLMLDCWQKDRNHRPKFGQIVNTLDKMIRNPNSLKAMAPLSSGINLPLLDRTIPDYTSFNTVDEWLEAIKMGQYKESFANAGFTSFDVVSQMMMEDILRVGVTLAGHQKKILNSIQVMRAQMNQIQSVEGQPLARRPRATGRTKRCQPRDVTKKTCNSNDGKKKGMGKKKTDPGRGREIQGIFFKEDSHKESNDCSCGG

MAPK2 = target: T10, MAPK2 (Homo sapiens, UniProt P28482); assay: Kinome profiler screen; assay type: biochemical; details: at 20,000 nM inhibitor; kinase activity remaining
T10 construct: purchased Millipore KinaseProfiler

SGK3 = target: T11, SGK3 (Homo sapiens, UniProt Q96BR1); assay: Kinome profiler screen; assay type: biochemical; details: at 20,000 nM inhibitor; kinase activity remaining
T11 construct: purchased Millipore KinaseProfiler

PI3K-C2γ = target: T12, PI3K-C2γ (Homo sapiens, UniProt O75747); assay: Kinome profiler screen; assay type: biochemical; details: at 20,000 nM inhibitor; kinase activity remaining
T12 construct: purchased Millipore KinaseProfiler

HIPK3 = target: T13, HIPK3 (Homo sapiens, UniProt Q9H422); assay: Kinome profiler screen; assay type: biochemical; details: at 20,000 nM inhibitor; kinase activity remaining
T13 construct: purchased Millipore KinaseProfiler

Tie2(R849W) = target: T14, Tie2(R849W) (Homo sapiens, UniProt Q02763, R849W); assay: Kinome profiler screen; assay type: biochemical; details: at 20,000 nM inhibitor; kinase activity remaining
T14 construct: purchased Millipore KinaseProfiler

NEK3 = target: T15, NEK3 (Homo sapiens, UniProt P51956); assay: Kinome profiler screen; assay type: biochemical; details: at 20,000 nM inhibitor; kinase activity remaining
T15 construct: purchased Millipore KinaseProfiler

BTK = target: T16, BTK (Homo sapiens, UniProt Q06187); assay: Kinome profiler screen; assay type: biochemical; details: at 20,000 nM inhibitor; kinase activity remaining
T16 construct: purchased Millipore KinaseProfiler

TBK1 = target: T17, TBK1 (Homo sapiens, UniProt Q9UHD2); assay: Kinome profiler screen; assay type: biochemical; details: at 20,000 nM inhibitor; kinase activity remaining
T17 construct: purchased Millipore KinaseProfiler

ARK5 = target: T18, ARK5 (Homo sapiens, UniProt O60285); assay: Kinome profiler screen; assay type: biochemical; details: at 20,000 nM inhibitor; kinase activity remaining
T18 construct: purchased Millipore KinaseProfiler

KDR = target: T19, KDR (Homo sapiens, UniProt P35968); assay: Kinome profiler screen; assay type: biochemical; details: at 20,000 nM inhibitor; kinase activity remaining
T19 construct: purchased Millipore KinaseProfiler

DAPK1 = target: T20, DAPK1 (Homo sapiens, UniProt P53355); assay: Kinome profiler screen; assay type: biochemical; details: at 20,000 nM inhibitor; kinase activity remaining
T20 construct: purchased Millipore KinaseProfiler

mTOR/FKBP12 = target: T21, mTOR/FKBP12 (Homo sapiens, UniProt P42345); assay: Kinome profiler screen; assay type: biochemical; details: at 20,000 nM inhibitor; kinase activity remaining
T21 construct: purchased Millipore KinaseProfiler

CDK5/p25 = target: T22, CDK5/p25 (Homo sapiens, UniProt Q00535); assay: Kinome profiler screen; assay type: biochemical; details: at 20,000 nM inhibitor; kinase activity remaining
T22 construct: purchased Millipore KinaseProfiler

Met(D1246N) = target: T23, Met(D1246N) (Homo sapiens, UniProt P08581, D1228N); assay: Kinome profiler screen; assay type: biochemical; details: at 20,000 nM inhibitor; kinase activity remaining
T23 construct: purchased Millipore KinaseProfiler

PKA = target: T24, PKA (Homo sapiens, UniProt P17612); assay: Kinome profiler screen; assay type: biochemical; details: at 20,000 nM inhibitor; kinase activity remaining
T24 construct: purchased Millipore KinaseProfiler

MRCKα = target: T25, MRCKα (Homo sapiens, UniProt Q5VT25); assay: Kinome profiler screen; assay type: biochemical; details: at 20,000 nM inhibitor; kinase activity remaining
T25 construct: purchased Millipore KinaseProfiler

EphA7 = target: T26, EphA7 (Homo sapiens, UniProt Q15375); assay: Kinome profiler screen; assay type: biochemical; details: for activity at 20 µM: at 20,000 nM inhibitor, kinase activity remaining
T26 construct: purchased Millipore

ROCK-II = target: T27, ROCK-II (Homo sapiens, UniProt O75116); assay: Kinome profiler screen; assay type: biochemical; details: at 20,000 nM inhibitor; kinase activity remaining
T27 construct: purchased Millipore KinaseProfiler

[1] = test system: sensory perception of electric shock; assay: Sensory threshold assessment; assay type: in vivo, C57BL/6J mice; details: control test
exploratory behavior = assay: Open-field test; assay type: in vivo, C57BL/6J mice; details: time in and entries into center compartment; control test

Chain of JNK3 (P53779 whole entry): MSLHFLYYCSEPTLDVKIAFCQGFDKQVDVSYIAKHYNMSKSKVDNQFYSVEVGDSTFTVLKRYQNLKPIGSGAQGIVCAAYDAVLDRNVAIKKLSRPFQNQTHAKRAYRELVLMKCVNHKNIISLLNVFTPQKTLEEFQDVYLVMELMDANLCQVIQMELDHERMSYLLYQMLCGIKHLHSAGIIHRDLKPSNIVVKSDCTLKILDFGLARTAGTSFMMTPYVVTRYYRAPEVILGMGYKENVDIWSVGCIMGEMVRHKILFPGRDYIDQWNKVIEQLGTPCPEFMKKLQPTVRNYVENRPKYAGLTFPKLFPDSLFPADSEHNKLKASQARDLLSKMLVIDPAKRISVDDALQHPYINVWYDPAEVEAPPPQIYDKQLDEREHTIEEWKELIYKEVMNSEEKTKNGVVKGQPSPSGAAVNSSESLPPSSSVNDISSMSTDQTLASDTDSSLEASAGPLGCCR
T26 sequence (Q15375 28-998): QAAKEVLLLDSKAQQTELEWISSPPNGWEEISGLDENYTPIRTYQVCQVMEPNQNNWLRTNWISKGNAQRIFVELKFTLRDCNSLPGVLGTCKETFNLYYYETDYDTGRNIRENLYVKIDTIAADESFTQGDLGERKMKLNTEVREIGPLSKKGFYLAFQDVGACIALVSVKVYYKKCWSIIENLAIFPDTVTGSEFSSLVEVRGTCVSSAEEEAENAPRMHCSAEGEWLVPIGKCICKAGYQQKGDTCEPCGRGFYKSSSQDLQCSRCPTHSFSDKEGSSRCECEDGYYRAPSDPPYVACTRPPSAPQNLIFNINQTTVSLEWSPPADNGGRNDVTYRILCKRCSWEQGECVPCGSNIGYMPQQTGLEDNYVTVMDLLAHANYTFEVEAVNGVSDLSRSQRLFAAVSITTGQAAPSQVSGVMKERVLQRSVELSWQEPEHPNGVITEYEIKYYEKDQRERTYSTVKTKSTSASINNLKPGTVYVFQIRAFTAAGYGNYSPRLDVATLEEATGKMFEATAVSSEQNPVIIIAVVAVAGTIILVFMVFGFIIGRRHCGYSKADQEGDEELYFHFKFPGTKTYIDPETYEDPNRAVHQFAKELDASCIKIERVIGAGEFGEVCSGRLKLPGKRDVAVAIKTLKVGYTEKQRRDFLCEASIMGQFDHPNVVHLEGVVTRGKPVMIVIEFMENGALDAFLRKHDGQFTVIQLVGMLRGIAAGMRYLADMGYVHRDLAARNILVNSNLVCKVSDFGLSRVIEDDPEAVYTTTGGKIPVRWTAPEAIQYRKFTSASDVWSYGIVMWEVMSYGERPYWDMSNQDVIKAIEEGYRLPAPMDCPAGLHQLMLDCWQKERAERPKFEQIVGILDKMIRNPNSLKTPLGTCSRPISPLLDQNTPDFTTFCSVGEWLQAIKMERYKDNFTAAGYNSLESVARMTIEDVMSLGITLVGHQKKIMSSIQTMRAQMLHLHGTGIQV
T2 sequence (Q9BZL6 whole entry): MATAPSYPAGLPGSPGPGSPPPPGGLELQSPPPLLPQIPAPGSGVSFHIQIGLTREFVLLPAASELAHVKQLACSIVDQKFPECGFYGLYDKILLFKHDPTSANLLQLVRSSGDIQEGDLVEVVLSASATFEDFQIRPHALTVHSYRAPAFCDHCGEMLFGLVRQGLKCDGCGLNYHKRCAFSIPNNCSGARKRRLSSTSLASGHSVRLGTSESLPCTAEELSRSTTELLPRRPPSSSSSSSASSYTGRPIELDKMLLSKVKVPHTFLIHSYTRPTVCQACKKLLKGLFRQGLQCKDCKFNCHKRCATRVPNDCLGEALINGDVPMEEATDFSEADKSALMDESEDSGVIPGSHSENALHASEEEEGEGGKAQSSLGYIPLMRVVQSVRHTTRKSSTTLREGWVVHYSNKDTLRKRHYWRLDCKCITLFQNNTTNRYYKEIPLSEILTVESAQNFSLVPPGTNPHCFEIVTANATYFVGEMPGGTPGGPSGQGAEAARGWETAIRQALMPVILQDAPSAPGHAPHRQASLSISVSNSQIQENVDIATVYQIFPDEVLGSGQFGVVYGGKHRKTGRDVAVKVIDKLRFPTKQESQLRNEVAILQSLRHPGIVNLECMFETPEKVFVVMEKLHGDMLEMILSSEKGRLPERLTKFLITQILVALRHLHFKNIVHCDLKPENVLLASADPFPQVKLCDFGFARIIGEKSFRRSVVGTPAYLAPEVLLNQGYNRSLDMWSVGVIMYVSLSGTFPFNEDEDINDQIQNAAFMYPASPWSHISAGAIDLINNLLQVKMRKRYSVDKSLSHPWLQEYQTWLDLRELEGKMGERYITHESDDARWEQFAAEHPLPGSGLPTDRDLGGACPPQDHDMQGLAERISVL
T5 sequence (P06241 whole entry): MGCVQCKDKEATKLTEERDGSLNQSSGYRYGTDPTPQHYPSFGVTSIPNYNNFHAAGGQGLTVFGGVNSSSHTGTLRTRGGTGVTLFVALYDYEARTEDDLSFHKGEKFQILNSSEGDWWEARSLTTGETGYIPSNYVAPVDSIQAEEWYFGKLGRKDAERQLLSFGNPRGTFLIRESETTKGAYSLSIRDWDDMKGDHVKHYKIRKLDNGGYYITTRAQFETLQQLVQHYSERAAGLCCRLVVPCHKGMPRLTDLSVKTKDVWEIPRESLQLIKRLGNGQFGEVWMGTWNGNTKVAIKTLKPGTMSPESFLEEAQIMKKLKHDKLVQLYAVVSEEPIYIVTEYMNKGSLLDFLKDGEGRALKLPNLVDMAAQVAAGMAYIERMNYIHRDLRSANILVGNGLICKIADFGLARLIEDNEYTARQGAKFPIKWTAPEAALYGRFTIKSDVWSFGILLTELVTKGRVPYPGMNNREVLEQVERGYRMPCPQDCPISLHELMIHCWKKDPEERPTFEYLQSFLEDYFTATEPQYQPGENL
T13 sequence (Q9H422 whole entry): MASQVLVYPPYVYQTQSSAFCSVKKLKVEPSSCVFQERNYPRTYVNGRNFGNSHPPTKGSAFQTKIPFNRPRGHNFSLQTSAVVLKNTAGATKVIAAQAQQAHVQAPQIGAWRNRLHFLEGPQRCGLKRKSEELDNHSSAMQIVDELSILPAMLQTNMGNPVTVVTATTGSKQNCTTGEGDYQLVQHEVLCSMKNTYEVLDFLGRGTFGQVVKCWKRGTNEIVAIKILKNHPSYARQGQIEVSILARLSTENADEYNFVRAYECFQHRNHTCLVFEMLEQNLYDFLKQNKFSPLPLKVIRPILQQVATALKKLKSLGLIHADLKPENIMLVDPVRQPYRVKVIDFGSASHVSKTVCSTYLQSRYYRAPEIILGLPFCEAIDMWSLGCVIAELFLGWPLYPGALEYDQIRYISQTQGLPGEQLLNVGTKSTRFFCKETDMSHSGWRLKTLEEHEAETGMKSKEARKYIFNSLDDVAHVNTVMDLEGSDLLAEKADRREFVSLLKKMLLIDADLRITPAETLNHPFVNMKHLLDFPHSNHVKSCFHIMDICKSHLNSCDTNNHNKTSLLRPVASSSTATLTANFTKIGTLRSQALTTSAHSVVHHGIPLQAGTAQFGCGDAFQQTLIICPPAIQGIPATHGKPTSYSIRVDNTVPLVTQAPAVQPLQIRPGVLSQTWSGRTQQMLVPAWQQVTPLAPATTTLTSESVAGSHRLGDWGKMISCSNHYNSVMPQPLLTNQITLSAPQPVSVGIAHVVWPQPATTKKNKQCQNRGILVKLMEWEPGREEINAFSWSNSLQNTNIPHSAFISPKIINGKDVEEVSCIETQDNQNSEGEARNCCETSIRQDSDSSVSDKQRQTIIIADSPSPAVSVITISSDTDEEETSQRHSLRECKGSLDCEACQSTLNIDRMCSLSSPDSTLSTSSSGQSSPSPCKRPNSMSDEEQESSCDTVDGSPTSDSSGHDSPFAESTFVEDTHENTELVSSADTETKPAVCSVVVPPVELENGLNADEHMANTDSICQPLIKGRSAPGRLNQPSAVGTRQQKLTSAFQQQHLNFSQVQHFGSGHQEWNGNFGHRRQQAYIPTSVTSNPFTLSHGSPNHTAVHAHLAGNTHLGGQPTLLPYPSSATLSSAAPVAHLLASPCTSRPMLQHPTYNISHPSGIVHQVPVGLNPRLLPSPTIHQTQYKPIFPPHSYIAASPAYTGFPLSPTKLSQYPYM
T1 sequence (O75914 whole entry): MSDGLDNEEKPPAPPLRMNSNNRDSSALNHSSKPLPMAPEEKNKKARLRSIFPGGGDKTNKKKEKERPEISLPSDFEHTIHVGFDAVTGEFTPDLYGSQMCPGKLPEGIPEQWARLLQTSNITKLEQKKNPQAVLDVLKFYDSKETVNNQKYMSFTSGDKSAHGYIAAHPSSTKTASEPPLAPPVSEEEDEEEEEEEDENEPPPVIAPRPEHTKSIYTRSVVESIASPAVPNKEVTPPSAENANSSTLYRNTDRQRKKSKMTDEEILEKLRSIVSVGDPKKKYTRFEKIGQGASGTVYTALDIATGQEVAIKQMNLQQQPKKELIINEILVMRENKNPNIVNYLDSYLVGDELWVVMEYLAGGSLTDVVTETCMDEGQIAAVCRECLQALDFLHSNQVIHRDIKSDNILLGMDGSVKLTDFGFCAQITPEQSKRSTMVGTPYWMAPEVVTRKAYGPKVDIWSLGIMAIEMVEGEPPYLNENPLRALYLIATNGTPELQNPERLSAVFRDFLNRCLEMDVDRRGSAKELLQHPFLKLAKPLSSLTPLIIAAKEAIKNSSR
T3 sequence (Q16644 whole entry): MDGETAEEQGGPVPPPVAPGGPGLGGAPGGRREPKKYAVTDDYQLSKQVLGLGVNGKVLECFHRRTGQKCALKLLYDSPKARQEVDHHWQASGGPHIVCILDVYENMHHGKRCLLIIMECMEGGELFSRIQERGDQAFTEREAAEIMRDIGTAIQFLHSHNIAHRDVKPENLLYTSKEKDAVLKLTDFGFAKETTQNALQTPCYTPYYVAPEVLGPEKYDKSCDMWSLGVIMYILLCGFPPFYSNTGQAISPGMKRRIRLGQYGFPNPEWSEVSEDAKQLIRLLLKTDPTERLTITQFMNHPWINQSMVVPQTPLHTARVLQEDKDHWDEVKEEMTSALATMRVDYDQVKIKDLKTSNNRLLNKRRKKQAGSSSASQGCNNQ

Compound	activity at 20 µM (PAK3)	activity at 20 µM (PKD2)	activity at 20 µM (MAPKAP-K3)	activity at 20 µM (MKK7β)	activity at 20 µM (Fyn)	activity at 20 µM (PASK)	activity at 20 µM (eEF-2K)	activity at 20 µM (JNK3)	activity at 20 µM (MLK1)	activity at 20 µM (EphB2)	activity at 20 µM (MAPK2)	activity at 20 µM (SGK3)	activity at 20 µM (PI3K-C2γ)	activity at 20 µM (HIPK3)	activity at 20 µM (Tie2(R849W))	activity at 20 µM (NEK3)	activity at 20 µM (BTK)	activity at 20 µM (TBK1)	activity at 20 µM (ARK5)	activity at 20 µM (KDR)	other results
CN(C)c1cc(-c2ccncc2)c(-c2cccc3ccccc23)nn1 [MW181, N,N-dimethyl-6-(naphthalen-1-yl)-5-(pyridin-4-yl)pyridazin-3-amine]	122%	78%	99%	116%	109%	97%	98%	12%	95%	92%	97%	100%	97%	95%	99%	116%	98%	98%	103%	97%	IC50 (JNK3; concentration-dependent follow-up of profiler hit, read-out: IC50): 2.4 µM; activity at 20 µM (DAPK1): 99%; activity at 20 µM (mTOR/FKBP12): 96%; activity at 20 µM (CDK5/p25): 99%; activity at 20 µM (Met(D1246N)): 104%; activity at 20 µM (PKA): 142%; activity at 20 µM (MRCKα): 103%; activity at 20 µM (EphA7): 77%; activity at 20 µM (ROCK-II): 108%; sensory threshold [1]: Sensory threshold was not affected regardless of treatment; exploratory behavior, open field (exploratory behavior): No differences in exploratory behavior
CN(C)c1cc(-c2ccncc2)c(-c2ccc3ccccc3c2)nn1 [MW108, N, N-dimethyl-6-(naphthalen-2-yl)-5-(pyridin-4-yl)pyridazin-3-amine]	78%	78%	102%	122%	95%	88%	108%	5%	98%	36%	113%	104%	50%	104%	77%	98%	97%	96%	98%	87%	IC50 (JNK3): 1.26 µM; IC50 (EphB2): 16.2 µM; activity at 20 µM (DAPK1): 92%; activity at 20 µM (mTOR/FKBP12): 100%; activity at 20 µM (CDK5/p25): 106%; activity at 20 µM (Met(D1246N)): 80%; activity at 20 µM (PKA): 74%; activity at 20 µM (MRCKα): 107%; IC50 (EphA7): 18.9 µM; activity at 20 µM (EphA7): 35%; activity at 20 µM (ROCK-II): 99%; sensory threshold [1]: Sensory threshold was not affected regardless of treatment; exploratory behavior, open field (exploratory behavior): No differences in exploratory behavior
